Reference: patent US20230218630A1, “COMBINATION OF ALCAFTADINE AND A CORTICOSTEROID” (priority 2020, published 2023)

Assays:
H1 receptors = H1 receptors (Homo sapiens, UniProt P35367); details: compared to azelastine and olapatadine; cited from earlier work
H2 receptors = H2 receptors (Homo sapiens, UniProt P25021); details: compared to azelastine and olapatadine; cited from earlier work
[1] = Nasal irritation and histopathology of nasal epithelium in rabbits; type: in vivo, male New Zealand white rabbits; details: intranasal, doses of 0.312 mg, 0.625 mg and 1.25 mg, all three groups
Protocol: (§1) The study was carried out on total 24 male New Zealand white rabbits, which were segregated into four groups (G1 to G4, 6 rabbits/group). Mild anaesthesia was induced in all rabbits by inhalation of 2% isoflurane. Three groups (G1-G3) of anaesthetized rabbits were intranasally administered 250 μL of alcaftadine once-daily using the formulations of Examples 10A, 10B, and 10C. A comparator, 250 μL of olopatadine at a concentration of 0.6% w/v, was intranasally administered once-daily to a fourth group G4 of anaesthetized rabbits.
The animals were euthanized by intravenous administration of sodium thiopental injection overdose and nasal epithelium was collected. […] The remaining half of the tissues were stored in 10% neutral buffered formalin for detailed gross histopathological examination such as necrosis, inflammation or any changes during necropsy.

[2] = Pharmacokinetics after intranasal administration in rabbits; details: for Tmax: male, New Zealand white, rabbit, plasma, inhaled or intranasal
Protocol: The pharmacokinetic profiles of the alcaftadine test formulations 4A, 4B, and 4C as well as an olapatdine nasal formulation were each determined on 6 male New Zealand white rabbits.
as §1
Sampling details for the test and reference formulations: Approximately 0.5 mL of blood sample from each rabbit was withdrawn via marginal ear vein into pre-labelled Eppendorf tubes containing 10% EDTA as an anticoagulant. Blood samples were withdrawn at 0 min, 5 min, 10 min, 15 min, 30 min, 60 min, 120 min, 240 min, 480 min and 1440 min after administration of test and reference formulations.
Procedure for sample preparation: Collected blood samples were mixed gently and kept on crushed ice. Plasma samples were separated after centrifugation at 3500 rpm for 10 min at 4° C. Plasma separation was carried out within 30 min of sample collection and stored at −70±10° C. The animals were euthanized by intravenous administration of sodium thiopental injection overdose and nasal epithelium was collected. Half of the tissues of nasal epithelium were homogenized using phosphate buffered solution (20% homogenation) for quantification of alcaftadine and olopatidine. The remaining half of the tissues were stored in 10% neutral buffered formalin for detailed gross histopathological examination such as necrosis, inflammation or any changes during necropsy.
Rabbit plasma and nasal epithelial tissue concentrations of alcaftadine or olopatidine were determined using a fit-for-purpose LC-MS/MS method with LLOQ of 0.500 ng/mL or 0.250 ng/mL, respectively. The pharmacokinetic parameters were evaluated using Phoenix WinNonlin® Ent-Version 8.0 by non-compartmental analysis.

[3] = single administration, doses of 0.625 to 1.25 mg

Sequence of H2 receptors (P25021 whole entry): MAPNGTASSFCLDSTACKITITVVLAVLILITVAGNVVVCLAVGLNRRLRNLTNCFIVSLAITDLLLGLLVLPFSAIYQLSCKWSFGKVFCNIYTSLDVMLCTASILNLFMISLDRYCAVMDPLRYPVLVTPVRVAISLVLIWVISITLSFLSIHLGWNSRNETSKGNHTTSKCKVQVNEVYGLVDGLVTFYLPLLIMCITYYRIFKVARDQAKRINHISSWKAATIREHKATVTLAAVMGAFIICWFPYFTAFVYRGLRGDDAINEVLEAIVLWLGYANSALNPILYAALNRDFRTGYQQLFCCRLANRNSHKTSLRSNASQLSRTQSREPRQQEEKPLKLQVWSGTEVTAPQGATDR
Sequence of H1 receptors (P35367 whole entry): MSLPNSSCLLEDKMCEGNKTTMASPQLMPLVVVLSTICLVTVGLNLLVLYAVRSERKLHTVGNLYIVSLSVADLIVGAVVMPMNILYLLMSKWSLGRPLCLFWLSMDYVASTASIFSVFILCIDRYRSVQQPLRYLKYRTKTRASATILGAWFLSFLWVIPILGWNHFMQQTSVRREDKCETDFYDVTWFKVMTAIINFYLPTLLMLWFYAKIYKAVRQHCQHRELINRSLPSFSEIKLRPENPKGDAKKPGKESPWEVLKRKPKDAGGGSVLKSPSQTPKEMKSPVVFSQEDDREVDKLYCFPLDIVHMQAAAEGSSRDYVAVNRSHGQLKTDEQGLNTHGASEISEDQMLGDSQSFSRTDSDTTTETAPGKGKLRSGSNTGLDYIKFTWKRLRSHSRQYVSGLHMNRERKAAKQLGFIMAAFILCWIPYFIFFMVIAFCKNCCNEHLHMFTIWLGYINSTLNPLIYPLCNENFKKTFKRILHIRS

SMILES: CN1CCC(=C2c3ccccc3CCn3c(C=O)cnc32)CC1 [Alcaftadine, 6,11-dihydro-11-(1-methyl-4-piperidinylidene)-5H-imidazo[2,1-b][3]benzazepine-3-carboxaldehyde]
- binding affinity to H1 receptors (H1 receptors): higher binding affinity
- binding affinity to H2 receptors (H2 receptors): higher binding affinity
- signs or symptoms of inflammation or irritation [1]: no signs or symptoms of inflammation or irritation were observed
- plasma concentration / systemic exposure ([2]; intranasal, rabbits): dose proportional with overall low systemic exposure
- Tmax ([2]; 0.312 mg): 4.8 min
- Tmax ([2]; 0.625 mg): 4.8 min
- Tmax ([2]; 1.25 mg): 4.8 min
- area under the curve (AUC0-24h) [2, 3]: dose proportional
- peak plasma concentrations (Cmax) [2, 3]: dose proportional
